According to patent US11065336B2, “Conjugates for targeting and clearing aggregates” (MedImmune Limited, priority 2018, dated 2021):
Ends that are not written are not given here.

Experiments:
[1] = tested on: amyloid proteins (hen lysozyme (hLys), human full-length alpha synuclein, human tau P301S); experiment: fluorometric assay of binding to amyloid proteins; settings: 30 μM reporter solution in PBS; excitation 450 nm, emission 460-680 nm; compared to amyloid-free control
Procedure: The binding of BDB to various amyloid proteins was evaluated in vitro using a fluorometric assay.
The amyloid proteins (hen lysozyme (hLys), human full-length alpha synuclein, and human tau P301S) were individually prepared for use in the fluorometric assay. hLys (Sigma) was dissolved in 136.8 mM NaCl, 2.68 mM KCl, 0.01% w/v NaN3, pH 2 at a concentration of 1.45 mg/ml and incubated at 55° C. for 24 h in an orbital shaker at 150 rpm. Human full length alpha synuclein (Alexotech) was dissolved in 150 mM NaCl, 1% v/v triton-x100 in PBS at a concentration of 2.2 mg/ml and incubated at 37° C. for 72 h in an orbital shaker at 250 rpm. Human tau P301S was incubated at 8 mg/ml with 4 mg/ml heparin (Sigma) in PBS, 30 mM 3-(N-morpholino) propanesulfonic acid (MOPS) (pH 7.2) at 37° C. for 72 h. […]
The binding of the BDB to amyloid was detected using a fluorometric assay. The amyloid binding was detected with the use of one of three fluorescent reporters solutions (30 μM BDB, cp33 peptide (Bonetto S et al. FASEB J. 2009; 23(2):575-85) or Thioflavin T (ThT) (Sigma) solution, in PBS). […] An Envision plate reader was set to excite at 450 nm and measure emission within the range 460-680 nm. The corresponding fluorescence signals of the reporter solutions were subtracted from the experimental data.

[2] = tested on: murine primary macrophages treated with LPS; experiment: FACS binding to activated and non-activated murine primary macrophages; assay type: cell-based; settings: 10 μM BDB or 1 μM biotinylated human IgG1; 4° C., 1 h
Procedure: (§1) In order to determine the binding affinity of BDB to activated phagocytic cells, activated and non-activated U937 cells or murine primary macrophages were resuspended in the presence of BDB, biotinylated human IgG1, or PBS. The cells were then stained using either AF488-streptavidin conjugate, APC-Cy7 dead/live stain, or dead/live stain only and measured using fluorescence activated cell sorting (FACS).
(§2) Specifically, U937 cells were cultured in RPMI 1640+2 mM Glutamine+10% v/v foetal bovine serum (FCS) for 48 h in the absence or presence of […] human IFNγ (Thermo Fisher Scientific). Murine primary macrophages were cultured for 48 h in the absence or presence of 100 μg/ml LPS (Sigma). Aliquots of 5×10^5 cells were centrifuged 3 min at 300 g and resuspended either in 50 μl of 10 μM BDB, 1 μM biotinylated human IgG1 or PBS. Samples were incubated at 4° C. for 1 h and then centrifuged for 3 min at 100 g. Cells were resuspended in 50 μl of either AF488-streptavidin conjugate (Thermo Fisher Scientific, 1:500 in PBS) with APC-Cy7 dead/live stain (Thermo Fisher Scientific, 1:2000 in PBS) or dead/live stain only. Samples were incubated at 4° C. for 30 min and then centrifuged for 3 min at 100 g. Samples were washed with 200 μl cold PBS and resuspended in 250 μl PBS for analysis using a FACS Canto II, with 10^4 events recorded per condition. […]

[3] = tested on: IFNγ-activated U937 cells; experiment: titrating BDB and IgG1 binding to IFNg stimulated U937 cells (FACS); assay type: cell-based, human; settings: flow cytometry
Procedure: as §2, with “condition. Using FlowJo software, cells were visualised using forward and side scatter plots (FSC vs. SSC) and live cells were gated according to their live/dead staining. The percentage of live cells positive for AF488 signal was identified for each condition and plotted. The experiment was repeated three times and results present as the mean (+/−SD).” for “condition.”
The binding of BDB and IgG1 to IFNγ stimulated U937 cells was determined using the following methods. […]

[4] = tested on: IFNγ-activated U937 cells; experiment: colocalization of BDB and AF647-labelled hLys amyloid to the surface of U937 cells (FACS); assay type: cell-based, human; settings: 1 μM BDB or cp33
Procedure: IFNγ-activated U937 cells, a human macrophage cell line, were incubated with either BDB, cp33 peptide, or vehicle in the presence or absence of Alexa Fluor™ 647-labelled hLys amyloid in order to determine if the IFNγ-activated U937 cells have increased binding of amyloid in the presence of BDB or cp33 peptide as compared to vehicle.
Specifically, hLys were labelled with the fluorescent dye alexa 647, using the Alexa Fluor™ 647 Microscale Protein Labelling Kit (Thermo Fisher Scientific) according to the manufacturer's instructions with the following modifications: after protein labelling, the solution was made up to 500 μl with PBS and the sample centrifuged at 20800 for 40 min. The supernatant was discarded and the pellet washed with PBS, resuspended in 500 μl PBS and the centrifugation repeated. The final pellet was resuspended in 100 μl of PBS.
U937 cells were cultured in RPMI 1640+2 mM Glutamine+10% v/v FCS for 48 h in the presence of […] human IFNγ. Aliquots of 5×10^5 cells were centrifuged 3 min at 300 g and resuspended in 50 μl of either 1 μM BDB or cp33 and then incubated with either 1 or 0.1 μM AF647-hLyz. The staining and FACS analysis were performed as before, this time reporting the percentage of live cells positive for both AF488-streptavidin and AF647 h-Lyz.

[5] = tested on: macrophage-differentiated U937 cells; experiment: phagocytosis of pHrodo-red labelled hLys amyloid (IncuCyte); assay type: cell-based, human
Procedure: Macrophage-differentiated U937 cells were co-incubated with pHrodo-red labelled amyloid, BDB, cp33 peptide, or control in order to determine the amount of amyloid phagocytosed under various conditions. hLys amyloid fibrils were generated as described above and were labelled with the pHrodo Red Microscale Labeling Kit (ThermoFisher) according to the manufacturers instruction except that unincorporated label was removed from the labelled amyloid by three rounds of centrifuging at 20,000×g in a microfuge, discarding the supernatant and resuspending the amyloid pellet in PBS. U937 cells were differentiated into macrophages in the presence of […] M-CSF (Peprotech), 1 μg/ml PMA (Sigma) and […] IFNγ (Thermo Fisher Scientific) for 4 days. 8×10^5 cells/condition were centrifuged for 3 min at 300 g and resuspended in 50 μl of 1 μM BDB, 1 μM cp33, 1 μM BDB with 0.1 μM labelled amyloid, 1 μM cp33 with 0.1 μM labelled amyloid, 0.1 μM labelled amyloid or a 1:100 PBS dilution of a pHrodo Red-labelled E. coli suspension (Thermo Fisher Scientific). […]
The plates were placed in an IncuCyte instrument and settings programmed to scan both in phase contrast and the red fluorescence channel hourly for 48 h. […] A metric of Total Red Object Area (μm^2/well) was used to quantify the appearance of pHrodo red fluorescence within cells. […]

[6] = tested on: Fc receptor on IFNγ-activated U937 cells; experiment: competition of BDB and cp33 peptide binding with unlabelled human IgG1 (FACS); assay type: cell-based; settings: 1 μM BDB or cp33; human IgG1 above approximately 10 nM
[7] = tested on: U937 cells treated with IFNγ; experiment: FACS binding to activated and non-activated U937 cells; assay type: cell-based; settings: 10 μM BDB or 1 μM biotinylated human IgG1; 4° C., 1 h
Procedure: as §1, §2

| Molecule | fluorescence in the presence of amyloid proteins [1] | binding to murine primary macrophages treated with LPS versus non-activated (percentage of live cells positive for AF488 signal) [2] | IFNg-activated U937 cells bound ([3]; BDB 0.01-5 μM, biotinylated IgG1 0.01-1 μM) [%] | EC50 ([3]; read-out: half-maximal binding to IFNγ-activated U937 cells) [nM] | cell binding with or without amyloid [4] | IFNγ-activated U937 cells binding amyloid (live cells positive for both AF488-streptavidin and AF647 h-Lyz) ([4]; 1 or 0.1 μM AF647-hLyz) | pHrodo red signal in the absence of amyloid ([5]; 1 μM BDB or 1 μM cp33, no amyloid) | phagocytosis of amyloid (pHrodo red signal, Total Red Object Area) ([5]; 1 μM BDB with 0.1 μM labelled amyloid, compared to cp33-amyloid or amyloid alone, hourly for 48 h) | displacement from binding to IFNγ-activated U937 cells by human IgG1 [6] | binding to U937 cells treated with IFNγ versus non-activated (percentage of live cells positive for AF488 signal) [7] |
| --- | --- | --- | --- | --- | --- | --- | --- | --- | --- | --- |
| Cc1ccc2c(c1)sc(-c1ccc(N(C)C)cc1)[n+]2C.[Cl-] [Tht, Thioflavin T, reference compound] | increased fluorescence |  |  |  |  |  |  |  |  |  |
| BDB: conjugate of Compound 1 (carboxylic acid derivative of thioflavin T) added as terminal residue to biotinylated cyclic cp33 peptide derivative (SEQ ID NO:3) (AQVNSCLLLPNLLGCGDDK; not fully specified (bridges); cysteine pairing not given here; also: biotinylated, thioflavin T derivative (Compound 1) added as terminal residue, end not given here) | increased fluorescence | enhanced binding | ≤ 80 | ~200 | show cell binding irrespective of whether amyloid is present | Up to 14.4% | did not generate a signal | enhances the phagocytosis of amyloid | displaced | enhanced binding |
